Test results from the supplement of paper PMC10307832.

How the values were obtained:
Assay in all cases: relative viability (nuclei count vs DMSO), 5 days (fraction); higher = more cells survive
Kobe2602 + Linsitinib = compound: C1=CC(=CC=C1NC(=S)NNC2=C(C=C(C=C2[N+](=O)[O-])C(F)(F)F)[N+](=O)[O-])F [Kobe2602] + C[C@]1(O)C[C@@H](c2nc(-c3ccc4ccc(-c5ccccc5)nc4c3)c3c(N)nccn32)C1 [Linsitinib] (partner 1 µM)
How it was run: (§1)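 Each reported value is a median over duplicate plates. It expresses relative viability: treated-well nuclei count divided by vehicle-well nuclei count. Lung cancer cell lines in 1536-well plates were dosed by pin tool a day after seeding, alone with one drug or with a fixed anchor-drug dose plus five library-drug doses (not always all listed) in √10 steps, and nuclei were counted after 5 days.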

Kobe2602 + Olaparib = compound: C1=CC(=CC=C1NC(=S)NNC2=C(C=C(C=C2[N+](=O)[O-])C(F)(F)F)[N+](=O)[O-])F [Kobe2602] + O=C(c1cc(Cc2n[nH]c(=O)c3ccccc23)ccc1F)N1CCN(C(=O)C2CC2)CC1 [Olaparib] (partner 8 µM)
How it was run: as §1

Cabozantinib + Alpelisib = compound: COc1cc2nccc(Oc3ccc(NC(=O)C4(C(=O)Nc5ccc(F)cc5)CC4)cc3)c2cc1OC [Cabozantinib] + Cc1nc(NC(=O)N2CCC[C@H]2C(N)=O)sc1-c1ccnc(C(C)(C)C(F)(F)F)c1 [Alpelisib] (partner 2 µM)
How it was run: as §1

Cabozantinib + Dasatinib = compound: COc1cc2nccc(Oc3ccc(NC(=O)C4(C(=O)Nc5ccc(F)cc5)CC4)cc3)c2cc1OC [Cabozantinib] + Cc1nc(Nc2ncc(C(=O)Nc3c(C)cccc3Cl)s2)cc(N2CCN(CCO)CC2)n1 [Dasatinib] (partner 0.075 µM)
How it was run: as §1

| Cell Line | relative viability (Kobe2602 + Linsitinib; first compound 0.2 µM) | relative viability (Kobe2602 + Linsitinib; first compound 0.6325 µM) | relative viability (Kobe2602 + Linsitinib; first compound 2 µM) | relative viability (Kobe2602 + Linsitinib; first compound 6.325 µM) | relative viability (Kobe2602 + Linsitinib; first compound 20 µM) | relative viability (Kobe2602 + Olaparib; first compound 0.2 µM) | relative viability (Kobe2602 + Olaparib; first compound 0.6325 µM) | relative viability (Kobe2602 + Olaparib; first compound 2 µM) | relative viability (Kobe2602 + Olaparib; first compound 6.325 µM) | relative viability (Kobe2602 + Olaparib; first compound 20 µM) | relative viability (Cabozantinib + Alpelisib; first compound 0.02 µM) | relative viability (Cabozantinib + Alpelisib; first compound 0.06325 µM) | relative viability (Cabozantinib + Alpelisib; first compound 0.2 µM) | relative viability (Cabozantinib + Alpelisib; first compound 0.6325 µM) | relative viability (Cabozantinib + Alpelisib; first compound 2 µM) | relative viability (Cabozantinib + Dasatinib; first compound 0.02 µM) | relative viability (Cabozantinib + Dasatinib; first compound 0.06325 µM) | relative viability (Cabozantinib + Dasatinib; first compound 0.2 µM) | relative viability (Cabozantinib + Dasatinib; first compound 0.6325 µM) | relative viability (Cabozantinib + Dasatinib; first compound 2 µM) |
| --- | --- | --- | --- | --- | --- | --- | --- | --- | --- | --- | --- | --- | --- | --- | --- | --- | --- | --- | --- | --- |
| NCI-H647 | 1.12 | 1.45 | 1.25 | 0.864 | 1.19 | 0.511 | 0.39 | 0.55 | 0.606 | 0.618 | 1.2 | 1.43 | 1.37 | 0.956 | 0.535 | 0.281 | 0.17 | 0.201 | 0.147 | 0.136 |
| LOU-NH91 | 0.997 | 0.983 | 1 | 0.922 | 0.965 | 0.9 | 0.922 | 0.875 | 0.917 | 0.819 | 0.721 | 0.793 | 0.505 | 0.742 | 0.713 | 0.432 | 0.579 | – | 0.578 | 0.547 |
| COR-L23 | 0.798 | 1.09 | 0.941 | 0.894 | 0.939 | 0.316 | 0.394 | 0.351 | 0.361 | 0.326 | 0.717 | 0.883 | 0.855 | 0.699 | 0.59 | 0.537 | 0.425 | 0.466 | 0.452 | 0.36 |
| NCI-H1437 | 0.974 | 0.995 | 1.03 | 0.998 | 0.872 | 0.666 | 0.632 | 0.6 | 0.562 | 0.475 | 1.03 | 1.03 | 0.992 | 1.02 | 0.934 | 0.263 | 0.617 | 0.371 | 0.377 | 0.309 |
| EPLC-272H | 1.2 | 1.2 | 1.23 | 1.36 | 0.447 | 0.905 | 0.744 | 0.578 | 0.663 | 0.943 | 1.02 | 0.944 | 0.727 | 0.949 | 0.847 | 0.245 | 0.403 | 0.26 | 0.26 | 0.285 |
| NCI-H1666 | 0.683 | 0.76 | – | 0.713 | 0.76 | 0.717 | 0.741 | 0.829 | 0.774 | 0.805 | 1.02 | 1.09 | 0.924 | 0.972 | 1.03 | 0.727 | 0.899 | 0.766 | 0.839 | 0.795 |
| NCI-H441 | 0.612 | 0.746 | 0.48 | 0.557 | 0.623 | 0.581 | 0.716 | 0.66 | 0.511 | 0.545 | – | 0.857 | 0.663 | 0.815 | 0.783 | 0.431 | 0.704 | 0.458 | 0.582 | 0.51 |
| NCI-H23 | 0.528 | 0.706 | 0.477 | 0.652 | 0.525 | 0.367 | 0.355 | 0.249 | 0.277 | 0.313 | – | 0.794 | 0.716 | 0.646 | 0.545 | – | 1.17 | 0.808 | 0.936 | 0.598 |
| SW 1573 | 0.846 | 0.767 | 0.811 | 0.769 | 0.864 | 0.477 | 0.416 | 0.306 | 0.466 | 0.152 | 1.02 | 0.719 | 0.77 | 0.792 | 0.651 | 0.438 | 0.738 | 0.453 | 0.624 | 0.456 |
| LU99A | 0.538 | 0.53 | 0.471 | 0.585 | 0.631 | 0.255 | 0.275 | 0.259 | 0.262 | 0.28 | 0.469 | 0.495 | 0.429 | 0.502 | 0.543 | 0.461 | 0.715 | 0.412 | 0.448 | 0.523 |
| SK-LU-1 | 1.05 | 1.15 | 1.04 | 1.04 | 1.27 | 0.463 | 0.471 | 0.494 | 0.457 | 0.523 | – | 1.29 | 0.983 | 0.718 | 0.705 | 0.138 | 0.164 | 0.174 | 0.155 | 0.156 |
| NCI-H2126 | 0.718 | 0.659 | 0.7 | 0.704 | 0.765 | 0.868 | 0.892 | 0.905 | 0.929 | 0.926 | 0.798 | 0.764 | 0.73 | 0.755 | 0.765 | 0.497 | 0.625 | 0.624 | 0.634 | 0.573 |
| LXF-289 | 0.944 | 0.985 | 0.941 | 0.952 | 0.919 | 1.05 | 1.1 | 1.05 | 0.955 | 1.04 | 1.11 | 1.09 | 1.01 | 1 | 0.997 | 0.126 | 0.206 | 0.155 | 0.117 | 0.0913 |
| BEN | 0.988 | 1.06 | 0.967 | 0.858 | 0.915 | 1.08 | 1.02 | 1 | 1.07 | 0.973 | 0.992 | 1.11 | 1.01 | 1.06 | 0.776 | 0.294 | 0.391 | 0.313 | 0.318 | 0.232 |
| LCLC-97TM1 | 0.221 | 0.179 | 0.159 | 0.196 | 0.202 | 0.365 | 0.416 | – | 0.437 | 0.383 | – | 0.259 | 0.264 | 0.284 | 0.297 | 0.723 | 0.854 | 0.757 | 0.848 | 0.717 |
| NCI-H1993 | 0.725 | 0.826 | 0.753 | 0.698 | 0.783 | 0.853 | 1.07 | 0.922 | 0.918 | 1.26 | 0.71 | 0.719 | 0.662 | 0.713 | 0.798 | 0.513 | 0.488 | 0.49 | 0.498 | 0.523 |
| NCI-H596 | 1.15 | 1.19 | 1.09 | 1.06 | 0.986 | 0.758 | 0.661 | 0.718 | 0.718 | 0.799 | 0.462 | 0.191 | 0.552 | 0.416 | 0.385 | 0.509 | 0.637 | 0.558 | 0.582 | 0.544 |
| LCLC-103H | 1.05 | 1.1 | 1.1 | 1.09 | 0.984 | 0.775 | 0.793 | 0.804 | 0.762 | 0.764 | 1.08 | 0.859 | 0.951 | 0.861 | 0.752 | 0.34 | 0.552 | 0.398 | 0.486 | 0.378 |
| HCC-78 | 0.61 | 0.495 | – | 0.459 | 0.611 | 0.852 | 0.809 | 0.904 | 0.591 | 0.907 | 0.26 | 0.298 | 0.227 | 0.201 | 0.198 | – | 0.431 | 0.185 | 0.195 | 0.217 |
| NCI-H1975 | 0.969 | 0.917 | 0.978 | 0.859 | 0.818 | 0.763 | 0.78 | 0.766 | 0.722 | 0.755 | 0.675 | 0.807 | 0.669 | 0.604 | 0.623 | 0.285 | 0.365 | 0.344 | 0.36 | 0.326 |
